Measured values from PubChem BioAssay AID1259407 (Chemical Carcinogenesis Research Information System (CCRIS), 2018).
Active and inactive are the calls of the source. The rule behind the calls is not given here.

Tested on: CCRIS mutagenicity, Ames/micronucleus/aberration tests
Assay: CCRIS mutagenicity studies
[1] = Test System: AMES SALMONELLA TYPHIMURIUM, Strain/Indicator: TA98, Metabolic Activation: NONE, Method: PREINCUBATION
[2] = Test System: AMES SALMONELLA TYPHIMURIUM, Strain/Indicator: TA100, Metabolic Activation: NONE, Method: PREINCUBATION
[3] = Test System: AMES SALMONELLA TYPHIMURIUM, Strain/Indicator: TA1535, Metabolic Activation: NONE, Method: PREINCUBATION
[4] = Test System: UDS RODENT HEPATOCYTES, Strain/Indicator: THY INCORP (NON-S-PHASE), Metabolic Activation: NONE, Method: AUTORADIOGRAPHY
[5] = Test System: AMES SALMONELLA TYPHIMURIUM, Strain/Indicator: TA100, Metabolic Activation: NONE, Method: STANDARD PLATE

Question: Which results are given for `CC(=O)Nc1ccc(N)cc1`?
Answer: mutagenic call (Test System: AMES SALMONELLA TYPHIMURIUM, Strain/Indicator: TA97, Metabolic Activation: HAMSTER, LIVER, S-9, AROCLOR 1254 (10%), Method: PREINCUBATION): inactive; negative; mutagenic call (Test System: AMES SALMONELLA TYPHIMURIUM, Strain/Indicator: TA97, Metabolic Activation: NONE, Method: PREINCUBATION): inactive; negative; mutagenic call (Test System: AMES SALMONELLA TYPHIMURIUM, Strain/Indicator: TA97, Metabolic Activation: RAT, LIVER, S-9, AROCLOR 1254 (10%), Method: PREINCUBATION): inactive; negative; mutagenic call (Test System: AMES SALMONELLA TYPHIMURIUM, Strain/Indicator: TA98, Metabolic Activation: HAMSTER, LIVER, S-9, AROCLOR 1254 (10%), Method: PREINCUBATION): active; positive; mutagenic call [1]: inactive; negative; mutagenic call (Test System: AMES SALMONELLA TYPHIMURIUM, Strain/Indicator: TA98, Metabolic Activation: RAT, LIVER, S-9, AROCLOR 1254 (10%), Method: PREINCUBATION): active; positive; mutagenic call (Test System: AMES SALMONELLA TYPHIMURIUM, Strain/Indicator: TA100, Metabolic Activation: HAMSTER, LIVER, S-9, AROCLOR 1254 (10%), Method: PREINCUBATION): inactive; negative; mutagenic call [2]: inactive; negative; mutagenic call (Test System: AMES SALMONELLA TYPHIMURIUM, Strain/Indicator: TA100, Metabolic Activation: RAT, LIVER, S-9, AROCLOR 1254 (10%), Method: PREINCUBATION): inactive; negative; mutagenic call (Test System: AMES SALMONELLA TYPHIMURIUM, Strain/Indicator: TA1535, Metabolic Activation: HAMSTER, LIVER, S-9, AROCLOR 1254 (10%), Method: PREINCUBATION): inactive; negative; mutagenic call [3]: inactive; negative; mutagenic call (Test System: AMES SALMONELLA TYPHIMURIUM, Strain/Indicator: TA1535, Metabolic Activation: RAT, LIVER, S-9, AROCLOR 1254 (10%), Method: PREINCUBATION): inactive; negative; mutagenic call (Test System: Ames Salmonella typhimurium, Strain/Indicator: TA98, Metabolic Activation: None, Method: Standard Plate): inactive; negative; mutagenic call (Test System: Ames Salmonella typhimurium, Strain/Indicator: TA100, Metabolic Activation: None, Method: Standard Plate): inactive; negative; mutagenic call (Test System: Ames Salmonella typhimurium, Strain/Indicator: TA102, Metabolic Activation: None, Method: Standard Plate): inactive; negative; mutagenic call (Test System: Ames Salmonella typhimurium, Strain/Indicator: TA1535, Metabolic Activation: None, Method: Standard Plate): inactive; negative; mutagenic call (Test System: Ames Salmonella typhimurium, Strain/Indicator: TA1537, Metabolic Activation: None, Method: Standard Plate): inactive; negative; mutagenic call [4]: inactive; negative

Question: What does the source list for `CN(C)[C@@H]1C(=O)C(C(N)=O)=C(O)[C@@]2(O)C(=O)C3=C(O)c4c(O)cccc4[C@@](C)(O)[C@H]3[C@H](O)[C@@H]12`?
Answer: mutagenic call (End Point: AMES SALMONELLA TYPHIMURIUM, Test System: TA98, Metabolic Activation: NONE, Method: STANDARD PLATE): inactive; negative; mutagenic call (End Point: AMES SALMONELLA TYPHIMURIUM, Test System: TA100, Metabolic Activation: NONE, Method: STANDARD PLATE): inactive; negative; mutagenic call (End Point: IN VITRO CHROMOSOMAL ABERRATIONS, Test System: CHO CELLS, Metabolic Activation: NONE): inactive; negative; mutagenic call (End Point: IN VITRO CHROMOSOMAL ABERRATIONS, Test System: CHO CELLS, Metabolic Activation: RAT, LIVER, S-9, AROCLOR 1254): inactive; negative; mutagenic call (Test System: AMES SALMONELLA TYPHIMURIUM, Strain/Indicator: TA98, Metabolic Activation: HAMSTER, LIVER, S-9, AROCLOR 1254, Method: PREINCUBATION): inactive; negative; mutagenic call [1]: inactive; negative; mutagenic call (Test System: AMES SALMONELLA TYPHIMURIUM, Strain/Indicator: TA98, Metabolic Activation: RAT, LIVER, S-9, AROCLOR 1254, Method: PREINCUBATION): inactive; negative; mutagenic call (Test System: AMES SALMONELLA TYPHIMURIUM, Strain/Indicator: TA100, Metabolic Activation: HAMSTER, LIVER, S-9, AROCLOR 1254, Method: PREINCUBATION): inactive; negative; mutagenic call [2]: inactive; negative; mutagenic call (Test System: AMES SALMONELLA TYPHIMURIUM, Strain/Indicator: TA100, Metabolic Activation: RAT, LIVER, S-9, AROCLOR 1254, Method: PREINCUBATION): inactive; negative; mutagenic call (Test System: AMES SALMONELLA TYPHIMURIUM, Strain/Indicator: TA1535, Metabolic Activation: HAMSTER, LIVER, S-9, AROCLOR 1254, Method: PREINCUBATION): inactive; negative; mutagenic call [3]: inactive; negative; mutagenic call (Test System: AMES SALMONELLA TYPHIMURIUM, Strain/Indicator: TA1535, Metabolic Activation: RAT, LIVER, S-9, AROCLOR 1254, Method: PREINCUBATION): inactive; negative; mutagenic call (Test System: AMES SALMONELLA TYPHIMURIUM, Strain/Indicator: TA1537, Metabolic Activation: HAMSTER, LIVER, S-9, AROCLOR 1254, Method: PREINCUBATION): inactive; negative; mutagenic call (Test System: AMES SALMONELLA TYPHIMURIUM, Strain/Indicator: TA1537, Metabolic Activation: NONE, Method: PREINCUBATION): inactive; negative; mutagenic call (Test System: AMES SALMONELLA TYPHIMURIUM, Strain/Indicator: TA1537, Metabolic Activation: RAT, LIVER, S-9, AROCLOR 1254, Method: PREINCUBATION): inactive; negative; mutagenic call (Test System: MOUSE LYMPHOMA, Strain/Indicator: L5178Y (TK+/TK-), Metabolic Activation: RAT, LIVER, S-9, AROCLOR 1254, Method: SUSPENSION/PLATE): active; positive

Question: Which mutagenic call (End Point: In vivo chromosomal aberrations, Test System: Bone marrow cells, Species: Mouse, Strain/Sex: Balb/C/Male and female, Route: Intraperitoneal) does the source give for `Nc1nc(Cl)nc2c1ncn2[C@H]1C[C@H](O)[C@@H](CO)O1` here?
Answer: inactive; negative

Question: Which results are given for `O=C1c2ccccc2C(=O)c2c1ccc(O)c2O`?
Answer: mutagenic call [1]: inactive; negative; mutagenic call (Test System: AMES SALMONELLA TYPHIMURIUM, Strain/Indicator: TA98, Metabolic Activation: RAT, LIVER, S-9, PCB, Method: PREINCUBATION): inactive; negative; mutagenic call [2]: inactive; negative; mutagenic call [5]: inactive; negative; mutagenic call (Test System: AMES SALMONELLA TYPHIMURIUM, Strain/Indicator: TA100, Metabolic Activation: RAT, LIVER, S-9, AROCLOR 1254, Method: STANDARD PLATE): inactive; negative; mutagenic call (Test System: AMES SALMONELLA TYPHIMURIUM, Strain/Indicator: TA100, Metabolic Activation: RAT, LIVER, S-9, PCB, Method: PREINCUBATION): inactive; negative; mutagenic call (Test System: AMES SALMONELLA TYPHIMURIUM, Strain/Indicator: TA1535, Metabolic Activation: NONE, Method: STANDARD PLATE): inactive; negative; mutagenic call (Test System: AMES SALMONELLA TYPHIMURIUM, Strain/Indicator: TA1535, Metabolic Activation: RAT, LIVER, S-9, AROCLOR 1254, Method: STANDARD PLATE): inactive; negative; mutagenic call (Test System: AMES SALMONELLA TYPHIMURIUM, Strain/Indicator: TA1537, Metabolic Activation: NONE, Method: STANDARD PLATE): active; positive; mutagenic call (Test System: AMES SALMONELLA TYPHIMURIUM, Strain/Indicator: TA1537, Metabolic Activation: RAT, LIVER, S-9, AROCLOR 1254, Method: STANDARD PLATE): active; positive; mutagenic call (Test System: AMES SALMONELLA TYPHIMURIUM, Strain/Indicator: TA1537, Metabolic Activation: RAT, LIVER, S-9, Method: PREINCUBATION): active; positive; mutagenic call (Test System: AMES SALMONELLA TYPHIMURIUM, Strain/Indicator: TA1538, Metabolic Activation: NONE, Method: STANDARD PLATE): inactive; negative; mutagenic call (Test System: AMES SALMONELLA TYPHIMURIUM, Strain/Indicator: TA1538, Metabolic Activation: RAT, LIVER, S-9, AROCLOR 1254, Method: STANDARD PLATE): inactive; negative; mutagenic call [4]: active; positive

Question: Which mutagenic call (Test System: AMES SALMONELLA TYPHIMURIUM, Strain/Indicator: TA100, Metabolic Activation: MOUSE, LIVER, S-9, AROCLOR 1254, Method: STANDARD PLATE) does the source give for `O=C(CBr)NCc1ccccc1` here?
Answer: active; positive

Question: And the mutagenic call [5]?
Answer: inactive; negative
